Tests used:
[1] = tested on: A549; assay: Antiproliferative activity against human A549 cells measured after 72 hrs by MTT assay; assay type: functional, cell-based; conditions: A549, 72 h
[2] = tested on: MDA-MB-231; assay: Antiproliferative activity against human MDA-MB-231 cells measured after 72 hrs by MTT assay; assay type: functional, cell-based; conditions: MDA-MB-231, 72 h
[3] = tested on: NCI-H2228; assay: Antiproliferative activity against human NCI-H2228 cells measured after 72 hrs by MTT assay; assay type: functional, cell-based; conditions: NCI-H2228, 72 h
[4] = tested on: MCF7; assay: Antiproliferative activity against human MCF7 cells measured after 72 hrs by MTT assay; assay type: functional, cell-based; conditions: MCF7, 72 h
[5] = target: Autotaxin (Homo sapiens, UniProt Q13822); assay: Inhibition of human C-terminal His6-tagged ATX beta expressed in Sf9 insect cells using FS-3 as substrate preincubated for 45 mins followed by substrate addition and measured at 1 min interval for 30 mins by fluorescence assay

SMILES	IC50 [1]	IC50 [2]	IC50 [3]	IC50 [4]	IC50 [5]
O=C(CCN1CCN(C(=O)OCc2cc(Cl)cc(Cl)c2)CC1)c1ccc2[nH]c(=O)oc2c1	8.21 µM	4170 nM	11.3 µM	2310 nM	
CCn1cc(/C(=N/Nc2nc(-c3ccc(OC)cc3)c(C#N)s2)C(F)(F)F)c2cc(-c3nc(CN4CCOCC4)cs3)ccc21	> 15 µM	5120 nM			2060 nM
CCn1cc(/C(=N/Nc2nc(-c3ccc(F)cc3)c(C#N)s2)C(F)(F)F)c2cc(-c3nc(CN4CCC(O)CC4)cs3)ccc21	10.3 µM			5130 nM	2050 nM
CCN1CCN(Cc2csc(-c3ccc4c(c3)c(/C(=N/Nc3nc(-c5ccc(Cl)cc5)c(C#N)s3)C(F)(F)F)cn4CC)n2)CC1	13.8 µM	3210 nM	> 15 µM	5730 nM	2130 nM
CCn1cc(/C(=N/Nc2nc(-c3ccc(OC)cc3)c(C#N)s2)C(F)(F)F)c2cc(-c3nc(CN4CCC(C)CC4)cs3)ccc21	9.81 µM			2230 nM	> 10000 nM
CCn1cc(/C(=N/Nc2nc3ccccc3s2)C(F)(F)F)c2cc(-c3nc(CN4CCCC4)cs3)ccc21	8.01 µM		6.31 µM	1790 nM	126 nM
CCN1CCN(Cc2csc(-c3ccc4c(c3)c(/C(=N/Nc3nc(-c5ccc(F)cc5)c(C#N)s3)C(F)(F)F)cn4CC)n2)CC1	> 15 µM	2690 nM		4330 nM	1540 nM
CCn1cc(/C(=N/Nc2nc(-c3ccc(F)cc3)c(C#N)s2)C(F)(F)F)c2cc(-c3nc(CN4CCN(CCO)CC4)cs3)ccc21	7.31 µM		> 15 µM	3250 nM	780 nM
CCn1cc(/C(=N/Nc2nc(-c3ccc(OC)cc3)c(C#N)s2)C(F)(F)F)c2cc(-c3nc(CN4CCC(O)CC4)cs3)ccc21		3980 nM	> 15 µM	1370 nM	560 nM
CCn1cc(/C(=N/Nc2nc(-c3ccc(Cl)cc3)c(C#N)s2)C(F)(F)F)c2cc(-c3nc(CN4CCC(O)CC4)cs3)ccc21	> 15 µM	2330 nM			1430 nM
CCn1cc(/C(=N/Nc2nc(-c3ccc(F)cc3)c(C#N)s2)C(F)(F)F)c2cc(-c3nc(CN4CCC[C@H]4CO)cs3)ccc21					5270 nM
Cc1[nH]c2cc(F)c(N3CCC(C(=O)N4CCOCC4)CC3)cc2c1/C=N/Nc1nc(-c2ccc(F)cc2)c(C#N)s1		3670 nM	> 15 µM	1670 nM	104 nM
CCN1CCN(Cc2csc(-c3ccc4c(c3)c(/C(=N/Nc3nc(-c5ccc(OC)cc5)c(C#N)s3)C(F)(F)F)cn4CC)n2)CC1	> 15 µM			4670 nM	930 nM
CCn1cc(/C(=N/Nc2nc(-c3ccc(OC)cc3)c(C#N)s2)C(F)(F)F)c2cc(-c3nc(CN4CCC[C@H]4C(=O)O)cs3)ccc21	> 15 µM	1230 nM		1510 nM	980 nM
CCn1cc(/C(=N/Nc2nc3ccccc3s2)C(F)(F)F)c2cc(-c3nc(CN4CCC(O)CC4)cs3)ccc21	11 µM	310 nM	7.18 µM	430 nM	2.1 nM
CCn1cc(/C(=N/Nc2nc(-c3ccc(Cl)cc3)c(C#N)s2)C(F)(F)F)c2cc(-c3nc(CN4CCC[C@H]4CO)cs3)ccc21		1210 nM	> 15 µM		1410 nM
CCn1cc(/C(=N/Nc2nc3ccccc3s2)C(F)(F)F)c2cc(-c3nc(CN4CCOCC4)cs3)ccc21	9.37 µM	7300 nM		2730 nM	201 nM
CCn1cc(/C(=N/Nc2nc(-c3ccc(Cl)cc3)c(C#N)s2)C(F)(F)F)c2cc(-c3nc(CN4CCCC4)cs3)ccc21	> 15 µM	1560 nM		5030 nM	2450 nM
CCn1cc(/C(=N/Nc2nc3ccccc3s2)C(F)(F)F)c2cc(-c3nc(CN4CCC[C@H]4C(=O)O)cs3)ccc21	> 15 µM	3490 nM		1920 nM	72 nM
CCN1CCN(C(=O)C2CCN(c3cc4c(/C=N/Nc5nc(-c6ccc(F)cc6)c(C#N)s5)c(C)[nH]c4cc3F)CC2)CC1	> 15 µM	1140 nM			159 nM
CCn1cc(/C(=N/Nc2nc(-c3ccc(OC)cc3)c(C#N)s2)C(F)(F)F)c2cc(-c3nc(CN4CCN(C)CC4)cs3)ccc21	4.93 µM	8210 nM	2.6 µM	2790 nM	1850 nM
CCn1cc(/C(=N/Nc2nc(-c3ccc(F)cc3)c(C#N)s2)C(F)(F)F)c2cc(-c3nc(CN4CCOCC4)cs3)ccc21	> 15 µM	4970 nM	> 15 µM	2310 nM	2370 nM

SMILES	IC50 [1]	IC50 [2]	IC50 [3]	IC50 [4]	IC50 [5]
CCn1cc(/C(=N/Nc2nc(-c3ccc(F)cc3)c(C#N)s2)C(F)(F)F)c2cc(-c3nc(CN4CC(O)C4)cs3)ccc21	6.92 µM			1790 nM	1250 nM
CCn1cc(/C(=N/Nc2nc(-c3ccc(F)cc3)c(C#N)s2)C(F)(F)F)c2cc(-c3nc(CN4CCN(C)CC4)cs3)ccc21	11.7 µM			2100 nM	3020 nM
CCn1cc(/C(=N/Nc2nc(-c3ccc(OC)cc3)c(C#N)s2)C(F)(F)F)c2cc(-c3nc(CN4CCC[C@H]4CO)cs3)ccc21	10.9 µM			4260 nM	870 nM
CCn1cc(/C(=N/Nc2nc(-c3ccc(F)cc3)c(C#N)s2)C(F)(F)F)c2cc(-c3nc(CN4CCCCC4)cs3)ccc21	> 15 µM	5460 nM	5.71 µM	1570 nM	3430 nM
COc1ccc(-c2nc(N/N=C(/c3c(C)[nH]c4cc(F)c(N5CCN(CCN(C)C)CC5)cc34)C(F)(F)F)sc2C#N)cc1	> 15 µM	1230 nM	11.5 µM	2910 nM	167 nM
CCn1cc(/C(=N/Nc2nc3ccccc3s2)C(F)(F)F)c2cc(-c3nc(CN4CCC(C)CC4)cs3)ccc21		2080 nM	> 15 µM		337 nM
Cc1[nH]c2cc(F)c(N3CCC(C(=O)N4CCCC4)CC3)cc2c1/C(=N/Nc1nc(-c2ccc(F)cc2)c(C#N)s1)C(F)(F)F	9.07 µM		> 15 µM	750 nM	57 nM
Cn1cc(/C(=N/Nc2nc(-c3ccc(Cl)cc3)c(C#N)s2)C(F)(F)F)c2cc(-c3nc(CN4CCOCC4)cs3)ccc21	9.41 µM	2720 nM	> 15 µM	3250 nM	2970 nM
CCn1cc(/C(=N/Nc2nc(-c3ccc(OC)cc3)c(C#N)s2)C(F)(F)F)c2cc(-c3nc(CN4CCCC4)cs3)ccc21	13.7 µM	5170 nM	> 15 µM		3050 nM
CCn1cc(/C(=N/Nc2nc(-c3ccc(OC)cc3)c(C#N)s2)C(F)(F)F)c2cc(-c3nc(CN4CC(O)C4)cs3)ccc21	> 15 µM	2430 nM	> 15 µM	> 15000 nM	910 nM
Cn1cc(/C(=N/Nc2nc(-c3ccc(F)cc3)c(C#N)s2)C(F)(F)F)c2cc(-c3nc(CN4CCC(O)CC4)cs3)ccc21	9.21 µM	4510 nM	9.65 µM	4830 nM	1720 nM
CCn1cc(/C(=N/Nc2nc(-c3ccc(Cl)cc3)c(C#N)s2)C(F)(F)F)c2cc(-c3nc(CN4CCCCC4)cs3)ccc21					6070 nM
CCn1cc(/C(=N/Nc2nc(-c3ccc(F)cc3)c(C#N)s2)C(F)(F)F)c2cc(-c3nc(CN4CCC[C@H]4C(=O)O)cs3)ccc21	> 15 µM	1270 nM	> 15 µM	650 nM	610 nM
Cc1[nH]c2cc(F)c(N3CCN(CCN(C)C)CC3)cc2c1/C(=N/Nc1nc(-c2ccc(F)cc2)c(C#N)s1)C(F)(F)F	13.4 µM	790 nM	> 15 µM	1010 nM	19 nM
CCn1cc(/C(=N/Nc2nc(-c3ccc(Cl)cc3)c(C#N)s2)C(F)(F)F)c2cc(-c3nc(CN4CCN(C)CC4)cs3)ccc21		1560 nM	> 15 µM		1210 nM
CCn1cc(/C(=N/Nc2nc(-c3ccc(Cl)cc3)c(C#N)s2)C(F)(F)F)c2cc(-c3nc(CN4CC(O)C4)cs3)ccc21		3410 nM	> 15 µM	> 15000 nM	2460 nM
CCn1cc(/C(=N/Nc2nc(-c3ccc(Cl)cc3)c(C#N)s2)C(F)(F)F)c2cc(-c3nc(CN4CCC(C)CC4)cs3)ccc21					4210 nM
CCn1cc(/C(=N/Nc2nc3ccccc3s2)C(F)(F)F)c2cc(-c3nc(CN4CCCCC4)cs3)ccc21	> 15 µM		7.93 µM	3120 nM	107 nM
CCn1cc(/C(=N/Nc2nc3ccccc3s2)C(F)(F)F)c2cc(-c3nc(CN4CCN(C)CC4)cs3)ccc21	7.43 µM	1450 nM	8.51 µM	2780 nM	116 nM
CCn1cc(/C(=N/Nc2nc(-c3ccc(F)cc3)c(C#N)s2)C(F)(F)F)c2cc(-c3nc(CN4CCCC4)cs3)ccc21	> 15 µM	2370 nM	6.31 µM	2850 nM	1310 nM
CCc1nc2c(C)cc(N3CCN(CC(=O)N4CC(O)C4)CC3)cn2c1N(C)c1nc(-c2ccc(F)cc2)c(C#N)s1 [ZIRITAXESTAT]	> 15 µM	6270 nM	> 15 µM	8320 nM	

— ChEMBL document CHEMBL4765354, “Structure guided design of potent indole-based ATX inhibitors bearing hydrazone moiety with tumor suppression effects” (Eur J Med Chem, 2020)
